Source: the AptaBench aptamer set (doi:10.1093/nar/gkaf219)
One block for each compound: values may come before it.

What was measured:
Conditions in all cases: 10 mM Tris-HCl, pH 7.4
[1] = test system: DNA aptamer or structured DNA GGGACGACCTAGGGCTTGGGTTTAGGTGTGGGGTGTTGGGTCGTCCC
[2] = test system: DNA aptamer or structured DNA CTTACGACAAAGGCTCGGGCTCCCATGATGGATTCGTTGTCGTAAG
[3] = test system: DNA aptamer or structured DNA CTTACGACTAGTCGGTGGGGGGTAGGCGGAGGGTTGTTGTCGTAAG
[4] = test system: DNA aptamer or structured DNA CTTACGACGTGGGAAGTGTGGTTTGTGATCGGATCCGTGTCGTAAG
[5] = test system: DNA aptamer or structured DNA CTTACGACGGGTAGGCTGAGGGTCTGGAGTGGTTGGAAGTCGTAAG
[6] = test system: DNA aptamer or structured DNA TTCAAATCTTGGTACGTTCTGCCTTTTCTTATTTTGCTTTGGGTTACCTAGTCTAGATTTGAA
[7] = test system: DNA aptamer or structured DNA GGGACGACGGTTGGCTTGGGGTCGGGTGTGGGTGCGGCGTCGTCCC
[8] = test system: DNA aptamer or structured DNA CTTACGACCGGCGGAAGGCTGGAGGGGTTGGGGGAGGTGTCGTAAG
[9] = test system: DNA aptamer or structured DNA CTTACGACACCGGGATCCAGATGGGTAGTTTGATGTGTGTCGTAAG
[10] = test system: DNA aptamer or structured DNA GGGACGACGGCTTGCATTGAGCAGAAGGGGTACACGCTGTCGTCCC
[11] = test system: DNA aptamer or structured DNA CTTACGACAGGGGTACCCGCGTATAACGTGGCGTTCGTGTCGTAAG
[12] = test system: DNA aptamer or structured DNA GGGACGACGGGGCTGTGGGAGGGGGTTCATGGGTCCCGGTCGTCCC
[13] = test system: DNA aptamer or structured DNA GGGACGACTGCTTGGGTAGGTCGGGTTTGGGTTCGGCGGTCGTCCC
[14] = test system: DNA aptamer or structured DNA CTTACGACAAGGGATGTGAGTTAGTGTGTCGGATCTATGTCGTAAG
[15] = test system: DNA aptamer or structured DNA GGGACGACAGAGGTTAGGTGTAGGTTTTTGGGTCCTGTCGTCCC
[16] = test system: DNA aptamer or structured DNA TTCAAATCTCGCGCAGGTAGGGGTGTAGGTGTGGGGGTAAGTCTAGATTTGAA
[17] = test system: DNA aptamer or structured DNA CTTACGACAAGGGATGTCTGTTAGTGTGTCGGTGCATTGTCGTAAG
[18] = test system: DNA aptamer or structured DNA CTTACGACTAGTTCGGATAAGGGGTAGGTGTGGTTGTGGTCGTAAG
[19] = test system: DNA aptamer or structured DNA CTTACGACGGGGGTGTGGCTAGGGGTGGCGCGGGATCCGTCGTAAG
[20] = test system: DNA aptamer or structured DNA GGGACGACGGGGCTCTTACCCTGGAGGGTAGAAGGGGAGGTGTGGTCAGTCGTCCC
[21] = test system: DNA aptamer or structured DNA CTTACGACTAGGTGTGGGTCGGCTCCGGATGGAGGGTAGTCGTAAG
[22] = test system: DNA aptamer or structured DNA CTTACGACACAGGGCGTGGAGTGGCTGGGCTTCAAGGGGTCGTAAG
[23] = test system: DNA aptamer or structured DNA CTTACGACTAGTTCCGGGTAGGGGTAGGTGTGGTTGTGGTCGTAAG
[24] = test system: DNA aptamer or structured DNA CTTACGACCTGCTCTGAGGGTCAACGGTGGTGTAGTCGGTCGTAAG
[25] = test system: DNA aptamer or structured DNA CTTACGACTTGTTCTGAGGGTCAACGGTGGTGTAGTTAGTCGTAAG
[26] = test system: DNA aptamer or structured DNA TTCAAATCTGAGCAGCCTAGTTACTGACGGGTTTATAGTACTCGCACTGAGTCTAGATTTGAA
[27] = test system: DNA aptamer or structured DNA CTTACGACGTGTGCTGTTGGTTCTAGGGGTAGGATGGCGTCGTAAG
[28] = test system: DNA aptamer or structured DNA TTCAAATCTGAGCAGCCTAGTTACTGACGGGTTTATAGTACTCACATTGAGTCTAGATTTGAA
[29] = test system: DNA aptamer or structured DNA CTTACGACTAGGTGTGGGTCGGCTTTTTTTTAAGGGTAGTCGTAAG
[30] = test system: DNA aptamer or structured DNA GGGACGACACGTGTGGCTGGTAGGGTAGGTCTTGTCGCGTCGTCCC
[31] = test system: DNA aptamer or structured DNA CTTACGACAAACTTTTGGGTATCTGGTTGGGAGGTTCTGTCGTAAG
[32] = test system: DNA aptamer or structured DNA CTTACGACTAGGTGTGGGTCGGCTCCGAATGGAGGGTAGTCGTAAG
[33] = test system: DNA aptamer or structured DNA TTCAAATCTGAGCAGCCTAGTTACTGACGGGTTTATAGTACTCGCATCGAGTCTAGATTTGAA
[34] = test system: DNA aptamer or structured DNA CTTACGACGGTCTTTTGGGTGTTCTGGGTGGGAGGAGCGTCGTAAG
[35] = test system: DNA aptamer or structured DNA GGGACGACGGTTGGCATTGGGTCGGGTGTGGGGGCGGCGTCGTCCC
Wherever binding call is given: call rule not given here.

Compound: COC(=O)[C@@H]1C2CCC(C[C@@H]1OC(=O)c1ccccc1)N2C (some centres undefined)
binding call [1]: binds | Kd [2]: 285 nM | Kd [3]: 122 nM | Kd [4]: 168 nM | Kd [5]: 450 nM | binding call [6]: no binding | binding call [7]: binds | binding call [8]: binds | binding call [9]: no binding | binding call [10]: no binding | binding call [11]: no binding | binding call [12]: no binding | binding call [13]: binds | Kd [14]: 152 nM | binding call [15]: no binding | binding call [16]: no binding | Kd [17]: 330 nM | Kd [18]: 192 nM | Kd [19]: 185 nM | binding call [20]: binds | Kd [21]: 510 nM | Kd [22]: 123 nM | Kd [23]: 61 nM | Kd [24]: 189 nM | Kd [25]: 22 nM | binding call [26]: no binding | Kd [27]: 235 nM | binding call [28]: no binding | Kd [29]: 352 nM | binding call [30]: binds

Compound: NCCc1c[nH]c2ccc(O)cc12
binding call [1]: no binding | binding call [2]: no binding | binding call [3]: no binding | binding call [31]: no binding | binding call [4]: no binding | binding call [32]: no binding | binding call [33]: no binding | binding call [5]: no binding | binding call [6]: no binding | binding call [14]: no binding | binding call [15]: no binding | binding call [16]: no binding | binding call [17]: no binding | binding call [18]: binds | binding call [19]: binds | binding call [20]: binds | binding call [21]: no binding | binding call [22]: no binding | binding call [23]: binds | binding call [34]: no binding | binding call [24]: no binding | binding call [25]: no binding | binding call [26]: no binding | binding call [27]: binds | binding call [28]: no binding | binding call [29]: no binding | binding call [30]: no binding

Compound: COc1ccc2c3c1O[C@H]1C(=O)CC[C@@]4(O)[C@@H](C2)N(C)CC[C@]314
binding call [1]: no binding | binding call [2]: no binding | binding call [31]: no binding | binding call [4]: no binding | binding call [32]: no binding | binding call [5]: no binding | binding call [7]: no binding | Kd [10]: 790 nM | binding call [13]: no binding | binding call [14]: no binding | binding call [15]: no binding | binding call [16]: no binding | binding call [18]: no binding | binding call [19]: no binding | binding call [21]: no binding | binding call [35]: no binding | binding call [22]: no binding | binding call [23]: no binding | binding call [34]: no binding | binding call [24]: no binding | binding call [25]: no binding | binding call [29]: no binding | binding call [30]: binds

binding call [2]: no binding | binding call [3]: binds | binding call [31]: no binding | binding call [4]: binds | binding call [32]: no binding | binding call [33]: binds | binding call [5]: no binding | binding call [6]: no binding | binding call [14]: binds | binding call [17]: no binding | binding call [18]: no binding | binding call [19]: binds | binding call [20]: no binding | binding call [21]: no binding | binding call [22]: no binding | binding call [23]: no binding | binding call [34]: no binding | binding call [24]: no binding | binding call [25]: no binding | binding call [26]: no binding | binding call [27]: binds | binding call [28]: no binding | binding call [29]: no binding
Compound: NCCc1ccc(O)c(O)c1

binding call [2]: no binding | binding call [31]: binds | binding call [4]: binds | binding call [32]: no binding | binding call [33]: binds | binding call [5]: no binding | binding call [6]: no binding | binding call [7]: binds | binding call [8]: no binding | binding call [9]: binds | binding call [10]: binds | binding call [11]: no binding | binding call [12]: binds | binding call [13]: binds | binding call [14]: no binding | binding call [16]: no binding | binding call [18]: no binding | binding call [19]: binds | binding call [20]: binds | binding call [21]: no binding | binding call [35]: no binding | binding call [22]: no binding | binding call [23]: no binding | binding call [24]: no binding | binding call [25]: no binding | binding call [26]: binds | binding call [28]: binds | binding call [30]: binds
Compound: C=C[C@H]1CN2CC[C@@H]1C[C@H]2[C@H](O)c1ccnc2ccc(OC)cc12

Compound: CN1C2CCC1[C@@H](C(=O)O)[C@@H](OC(=O)c1ccccc1)C2 (some centres undefined)
binding call [2]: no binding | binding call [3]: no binding | binding call [31]: no binding | binding call [4]: no binding | binding call [32]: no binding | binding call [5]: binds | binding call [14]: binds | binding call [17]: no binding | binding call [18]: no binding | binding call [19]: binds | binding call [21]: no binding | binding call [22]: binds | binding call [23]: binds | binding call [34]: no binding | binding call [24]: no binding | binding call [25]: binds | binding call [27]: no binding | binding call [29]: no binding
